The subject of one test is Musca domestica (adult). Kind of test: Adult flies in spray-treated Petri dishes, surviving flies counted. The format is in vivo. As to conditions: 10 adult flies per pre-treated dish; RB 86 6%, Bionim 0.4%, potassium oleate 5% concentration. The method, then:
(§1) As RB 86™ needs an emulsifier for dissolving this emulsifier was also tested. All tests were reiterated, making a total of five times for each. Throughout the study, houseflies (Musca domestica) of a laboratory strain (772a) obtained from Statens Skadedyrslaboratorium, Lyngby, Denmark, was used. Standard medium for culturing larvae consisted of baker's yeast, mill: powder, water and wheat bran.
Test vessels were Petri dishes made of glass with a diameter of 9 cm. With the help of a spraying bottle the bottoms of the vessels were treated with each of the compositions a)-f). After transferring 10 adult flies to each of the pre-treated dishes, the dishes were covered with plastic film and the registration started. Observations were performed by counting the surviving flies at the start, after 5 minutes and subsequently every 10th minute up to a total of 60 minutes. Two further observations were made after 1.5 and 2 hours from the start, respectively.

For the next test, the system named is Musca domestica (larvae). Kind of test: Larvae in culture medium with the composition, surviving larvae counted. Type of test: in vivo. As to conditions: six days old larvae, 24° C., observed up to 36 hours. The procedure:
as §1
Six days old larvae were placed in 1.5 litre plastic vessels (Cerbo™) containing 40 g culture medium and the respective composition a)-f). The vessels were placed in a climate room (24° C., RH %=75%±10%). Observations were performed whereby the number surviving larvae were registrated after 2, 5, 12, 24 and 36 hours.

Test [1] deals with M. domestica spiracle opening bristles. Kind of test: Effects on flies studied in scanning electron microscope. The format is in vivo, Musca domestica. As to conditions: adult flies; Bionim 0.4%, potassium oleate 5%, Blidol 0.02%; SEM. An excerpt: A scanning electron microscope (SEM) was used to microscope adult flies treated with:
whereby morphological changes could be detected. These flies were photographed and compared with normal flies.
Morphological changes could be detected on the spiracle opening on the middle part of the body. Bristles (see FIG. 12) surround this breathing hole. […] Apparently these last mentioned effects are present when using the other compositions.

The next test deals with fleas. Description: Flea control on dogs. The format is in vivo. The procedure: 15 dogs infested with fleas were treated with oleate. The oleate was sprayed from pump bottles. At the first treatment the dogs were sprayed with oleate in the groins, armpits and head/neck. At the second treatment, twenty-four hours later, the dogs were sprayed only in the armpits and behind the ears.

The values below come from patent publication US20040037904A1, “Antibacterial composition comprising as an active ingredient saponificated vegetable oil” (priority 2000, published 2004).

Entries after “also recorded” stand apart in the source; their conditions may differ.

Regarding `CCCCCCCC/C=C\CCCCCCCC(=O)[O-].[K+]` [Potassium oleate], the “time within which all flies were killed” value in the test with Musca domestica (adult) is ≤ 5 min. Besides, the “controlling effect on larvae” value with Musca domestica (larvae) is on record as “An effect could however be detected”. The “deformation of bristles around the spiracle opening” value in test [1] was “The bristles are minimally affected; also recorded: only showed minimal changes”. For the same compound, in the test on fleas (after the first spray treatment, 15 infested dogs), the “fleas found on dogs” value is “only one or two fleas were found on some dogs”. For the same compound, the living fleas found result in the test with fleas (forty-eight hours later, after the second treatment) is “no living flea was found”. Also, the “living fleas found at another check” value in the test with fleas (four days later) is listed as “the result was the same”.
